Values after ≈ are worked out from the molar mass of the structure shown. Active and inactive are the calls of the source. The rule behind the calls is not given here.
How the values were obtained:
Staphylococcus aureus [1] = test: Antibacterial activity against Staphylococcus aureus ATCC43300 infected in sepsis mouse model assessed as reduction in kidney damage at 5 mg/kg pre-infected with bacteria for 1 hrs followed by compound administration at 12 hrs interval for 2 days by H and E staining based analysis; format: functional, organism-based; conditions: time 2.0 day
Staphylococcus aureus [2] = test: Antibacterial activity against Staphylococcus aureus ATCC43300 infected in sepsis mouse model assessed as reduction in spleen damage at 5 mg/kg pre-infected with bacteria for 1 hrs followed by compound administration at 12 hrs interval for 2 days by H and E staining based analysis; format: functional, organism-based; conditions: time 2.0 day
Staphylococcus aureus [3] = test: Antibacterial activity against Staphylococcus aureus ATCC43300 infected in sepsis mouse model assessed as reduction in kidney inflammation at 5 mg/kg pre-infected with bacteria for 1 hrs followed by compound administration at 12 hrs interval for 2 days by H and E staining based analysis; format: functional, organism-based; conditions: time 2.0 day
Staphylococcus aureus [4] = test: Antibacterial activity against Staphylococcus aureus ATCC43300 infected in sepsis mouse model assessed as reduction in liver inflammation at 5 mg/kg pre-infected with bacteria for 1 hrs followed by compound administration at 12 hrs interval for 2 days by H and E staining based analysis; format: functional, organism-based; conditions: time 2.0 day
Escherichia coli = test: Antibacterial activity against penicillin-susceptible Escherichia coli ATCC25922 by broth microdilution method; format: functional
Acinetobacter baumannii = test: Antibacterial activity against Acinetobacter baumannii ATCC19606 by broth microdilution assay; format: functional
Pseudomonas aeruginosa = test: Antibacterial activity against penicillin-susceptible Pseudomonas aeruginosa ATCC27853 by broth microdilution method; format: functional
Enterococcus faecalis = test: Antibacterial activity against vancomycin susceptible Enterococcus faecalis ATCC29212 by broth microdilution assay; format: functional
Bacillus subtilis = test: Antibacterial activity against penicillin-susceptible Bacillus subtilis ATCC9372 by broth microdilution assay; format: functional
Staphylococcus aureus [5] = test: Antibacterial activity against Staphylococcus aureus ATCC43300 infected in sepsis mouse model assessed as reduction in spleen inflammation at 5 mg/kg pre-infected with bacteria for 1 hrs followed by compound administration at 12 hrs interval for 2 days by H and E staining based analysis; format: functional, organism-based; conditions: time 2.0 day
Staphylococcus aureus [6] = test: Antibacterial activity against Staphylococcus aureus ATCC43300 infected in sepsis mouse model assessed as reduction in liver damage at 5 mg/kg pre-infected with bacteria for 1 hrs followed by compound administration at 12 hrs interval for 2 days by H and E staining based analysis; format: functional, organism-based; conditions: time 2.0 day
Klebsiella pneumoniae = test: Antibacterial activity against Klebsiella pneumoniae ATCC10031 by broth microdilution assay; format: functional
[7] = Selectivity index, ratio of HC50 for hemolytic activity in red blood cells (unknown origin) to MIC for antibacterial activity against penicillin-susceptible Escherichia coli ATCC25922; format: toxicity, cell-based, RBC; conditions: read-out: Selectivity Index
[8] = Selectivity index, ratio of HC50 for hemolytic activity in red blood cells (unknown origin) to MIC for antibacterial activity against penicillin-resistant Staphylococcus aureus ATCC43300; format: toxicity, cell-based, RBC; conditions: read-out: Selectivity Index
Staphylococcus aureus [9] = test: Antibacterial activity against penicillin-resistant Staphylococcus aureus ATCC31007 by broth microdilution assay; format: functional
[10] = tested on: Staphylococcus epidermidis; test: Antibacterial activity against erythromycin-susceptible Staphylococcus epidermidis ATCC12228 by broth microdilution assay; format: functional
Staphylococcus aureus [11] = test: Antibacterial activity against erythromycin susceptible Staphylococcus aureus ATCC25923 by broth microdilution assay; format: functional
Staphylococcus aureus [12] = test: Antibacterial activity against penicillin-resistant Staphylococcus aureus ATCC43300 by broth microdilution assay; format: functional
[13] = Hemolytic activity in red blood cells (unknown origin); format: toxicity, cell-based, Erythrocyte
Staphylococcus aureus [14] = test: Drug resistance, ratio of MIC for Staphylococcus aureus ATCC43300 measured after 17 passages to MIC for Staphylococcus aureus ATCC43300 measured after first exposure; format: functional

Structure (SMILES)	Activity (Staphylococcus aureus [1])	Activity (Staphylococcus aureus [2])	Activity (Staphylococcus aureus [3])	Activity (Staphylococcus aureus [4])	MIC (Escherichia coli)	MIC (Acinetobacter baumannii)	MIC (Pseudomonas aeruginosa)	MIC (Enterococcus faecalis)	MIC (Bacillus subtilis)	Activity (Staphylococcus aureus [5])	Activity (Staphylococcus aureus [6])	MIC (Klebsiella pneumoniae)	selectivity ratio [7]	selectivity ratio [8]	MIC (Staphylococcus aureus [9])	MIC [10]	MIC (Staphylococcus aureus [11])	MIC (Staphylococcus aureus [12])	HC50 [13]	Ratio (Staphylococcus aureus [14])
CN[C@H](CC(C)C)C(=O)N[C@H]1C(=O)N[C@@H](CC(N)=O)C(=O)N[C@H]2C(=O)N[C@H]3C(=O)N[C@H](C(=O)N[C@H](C(=O)O)c4cc(O)cc(O)c4-c4cc3ccc4O)[C@H](O)c3ccc(c(Cl)c3)Oc3cc2cc(c3O[C@@H]2O[C@H](CO)[C@@H](O)[C@H](O)[C@H]2O[C@H]2C[C@](C)(N)[C@H](O)[C@H](C)O2)Oc2ccc(cc2Cl)[C@H]1O [VANCOMYCIN]	Active	Active	Active	Active	128 µg/mL (≈ 88.3 µM)	16 µg/mL (≈ 11 µM)	> 128 µg/mL	2 µg/mL (≈ 1.38 µM)	0.5 µg/mL (≈ 0.345 µM)	Active	Active	128 µg/mL (≈ 88.3 µM)	–	–	–	–	–	–	–	–
CCCCCC[N+](C)(C)CCCOc1ccc(/C=C/C(=O)c2ccc(OCCC[N+](C)(C)CCCCCC)cc2)cc1.[Br-].[Br-]	–	–	–	–	4 µg/mL	16 µg/mL	32 µg/mL	1 µg/mL	0.5 µg/mL	–	–	4 µg/mL	283	1130	1 µg/mL	0.5 µg/mL	1 µg/mL	1 µg/mL	1130 µg/mL	–
CCn1cc(C(=O)O)c(=O)c2cc(F)c(N3CCNCC3)cc21 [NORFLOXACIN]	–	–	–	–	–	–	–	–	–	–	–	–	–	–	–	–	–	–	–	256
CCCCCCCC[N+](C)(C)CCCOc1ccc(/C=C/C(=O)c2ccc(OCCC[N+](C)(C)CCCCCCCC)cc2)cc1.[Br-].[Br-]	–	–	–	–	4 µg/mL	32 µg/mL	16 µg/mL	2 µg/mL	1 µg/mL	–	–	16 µg/mL	–	129	1 µg/mL	1 µg/mL	1 µg/mL	1 µg/mL	129 µg/mL	–
CCCCCC[N+](C)(C)CCCCCOc1ccc(C(=O)/C=C/c2ccccc2)cc1.[Br-]	–	–	–	–	> 128 µg/mL	64 µg/mL	> 128 µg/mL	16 µg/mL	8 µg/mL	–	–	32 µg/mL	–	7	16 µg/mL	8 µg/mL	2 µg/mL	16 µg/mL	112 µg/mL	–
CCCCCC(=O)Nc1cc[n+](CCCOc2ccc(C(=O)/C=C/c3ccccc3)cc2)cc1.[Br-]	–	–	–	–	> 128 µg/mL	> 128 µg/mL	> 128 µg/mL	8 µg/mL	4 µg/mL	–	–	> 128 µg/mL	–	> 320	4 µg/mL	> 128 µg/mL	2 µg/mL	4 µg/mL	> 1280 µg/mL	–
CCCCCCCCCC[N+](C)(C)CCCOc1ccc(/C=C/C(=O)c2ccc(OCCC[N+](C)(C)CCCCCCCCCC)cc2)cc1.[Br-].[Br-]	–	–	–	–	8 µg/mL	128 µg/mL	32 µg/mL	2 µg/mL	2 µg/mL	–	–	64 µg/mL	–	22	2 µg/mL	1 µg/mL	8 µg/mL	2 µg/mL	44 µg/mL	–
CCCCCC[N+](C)(C)CCCOc1ccc(C(=O)/C=C/c2ccccc2)cc1.[Br-]	–	–	–	–	> 128 µg/mL	64 µg/mL	> 128 µg/mL	16 µg/mL	16 µg/mL	–	–	64 µg/mL	–	3.1	16 µg/mL	8 µg/mL	4 µg/mL	16 µg/mL	49.6 µg/mL	–
CCCCCCCCCCCC[N+](C)(C)CCCOc1ccc(C(=O)/C=C/c2ccccc2)cc1.[Br-]	–	–	–	–	128 µg/mL	64 µg/mL	> 128 µg/mL	> 128 µg/mL	4 µg/mL	–	–	64 µg/mL	–	55.1	16 µg/mL	8 µg/mL	4 µg/mL	4 µg/mL	220 µg/mL	–
O=C(Cc1ccc(-c2ccccc2)cc1)Nc1cc[n+](CCCOc2ccc(C(=O)/C=C/c3ccccc3)cc2)cc1.[Br-]	–	–	–	–	> 128 µg/mL	> 128 µg/mL	> 128 µg/mL	> 128 µg/mL	> 128 µg/mL	–	–	> 128 µg/mL	–	> 10	128 µg/mL	> 128 µg/mL	> 128 µg/mL	> 128 µg/mL	> 1280 µg/mL	–
CCCCCCCC[N+](C)(C)CCCOc1ccc(C(=O)/C=C/c2ccccc2)cc1.[Br-]	–	–	–	–	64 µg/mL	8 µg/mL	64 µg/mL	8 µg/mL	2 µg/mL	–	–	4 µg/mL	–	17.2	4 µg/mL	1 µg/mL	1 µg/mL	1 µg/mL	17.2 µg/mL	–
O=C(CC12CC3CC(CC(C3)C1)C2)Nc1cc[n+](CCCOc2ccc(C(=O)/C=C/c3ccccc3)cc2)cc1.[Br-]	–	–	–	–	> 128 µg/mL	> 128 µg/mL	> 128 µg/mL	64 µg/mL	64 µg/mL	–	–	> 128 µg/mL	–	5.5	64 µg/mL	64 µg/mL	32 µg/mL	128 µg/mL	708 µg/mL	–
CCCCCCCC[N+](C)(C)CCCCCCCOc1ccc(C(=O)/C=C/c2ccccc2)cc1.[Br-]	–	–	–	–	128 µg/mL	32 µg/mL	> 128 µg/mL	4 µg/mL	2 µg/mL	–	–	8 µg/mL	–	52.6	4 µg/mL	2 µg/mL	2 µg/mL	2 µg/mL	105 µg/mL	–
CCCCCC[N+](C)(C)CCCCCCCOc1ccc(C(=O)/C=C/c2ccccc2)cc1.[Br-]	–	–	–	–	> 128 µg/mL	16 µg/mL	> 128 µg/mL	4 µg/mL	2 µg/mL	–	–	16 µg/mL	–	15.4	4 µg/mL	2 µg/mL	2 µg/mL	4 µg/mL	61.6 µg/mL	–
CCCCCCCCCC[N+](C)(C)CCCCCCCOc1ccc(C(=O)/C=C/c2ccccc2)cc1.[Br-]	–	–	–	–	> 128 µg/mL	128 µg/mL	> 128 µg/mL	8 µg/mL	4 µg/mL	–	–	32 µg/mL	–	12.6	8 µg/mL	4 µg/mL	4 µg/mL	4 µg/mL	50.5 µg/mL	–
CCCCCCCCCCNC(=O)C[N+](C)(C)CCCOc1ccc(/C=C/C(=O)c2ccc(OCCC[N+](C)(C)CC(=O)NCCCCCCCCCC)cc2)cc1.[Br-].[Br-]	–	–	–	–	> 128 µg/mL	128 µg/mL	> 128 µg/mL	> 128 µg/mL	32 µg/mL	–	–	> 128 µg/mL	–	1	16 µg/mL	64 µg/mL	32 µg/mL	64 µg/mL	66.1 µg/mL	–
O=C(/C=C/c1ccccc1)c1ccc(OCCC[n+]2ccc(NC(=O)c3ccc4ccccc4c3)cc2)cc1.[Br-]	–	–	–	–	> 128 µg/mL	> 128 µg/mL	> 128 µg/mL	> 128 µg/mL	> 128 µg/mL	–	–	> 128 µg/mL	–	> 10	> 128 µg/mL	> 128 µg/mL	> 128 µg/mL	> 128 µg/mL	> 1280 µg/mL	–
CCCCCCCCCCCC[N+](C)(C)CCCCCOc1ccc(C(=O)/C=C/c2ccccc2)cc1.[Br-]	–	–	–	–	> 128 µg/mL	128 µg/mL	> 128 µg/mL	16 µg/mL	8 µg/mL	–	–	> 128 µg/mL	–	20.9	16 µg/mL	8 µg/mL	8 µg/mL	8 µg/mL	167 µg/mL	–
CCCCCCCCCC[N+](C)(C)CCCOc1ccc(C(=O)/C=C/c2ccccc2)cc1.[Br-]	–	–	–	–	> 128 µg/mL	> 128 µg/mL	> 128 µg/mL	64 µg/mL	8 µg/mL	–	–	128 µg/mL	–	189	4 µg/mL	16 µg/mL	8 µg/mL	4 µg/mL	756 µg/mL	–

— ChEMBL document CHEMBL6092194, “Development of membrane-targeting chalcone derivatives as antibacterial agents against multidrug-resistant bacteria” (Eur J Med Chem, 2024)
